Measured values as given in patent US20220267260A1, “COMPOUNDS CONTAINING A SULFONIC GROUP AS KAT INHIBITORS” (Epizyme, Inc., priority 2016, published 2022).

What was measured:
KAT6A = molecular target: T1, KAT6A (Homo sapiens, UniProt Q92794); assay: KAT6A enzyme inhibition assay (SAMDI mass spectrometry); format: biochemical; details: His-TEV-KAT6A 501-784 enzyme construct
T1 construct: His-TEV tag (N, cleaved yes); made in house

KAT5 = molecular target: T2, KAT5 (Homo sapiens, UniProt Q92993); assay: KAT5 enzyme inhibition assay (SAMDI mass spectrometry); format: biochemical; details: His-TEV-FL KAT5-Flag enzyme construct
T2 construct: His-TEV tag (N, cleaved yes); made in house
T2 sequence (Q92993 with tags, fused parts or gaps): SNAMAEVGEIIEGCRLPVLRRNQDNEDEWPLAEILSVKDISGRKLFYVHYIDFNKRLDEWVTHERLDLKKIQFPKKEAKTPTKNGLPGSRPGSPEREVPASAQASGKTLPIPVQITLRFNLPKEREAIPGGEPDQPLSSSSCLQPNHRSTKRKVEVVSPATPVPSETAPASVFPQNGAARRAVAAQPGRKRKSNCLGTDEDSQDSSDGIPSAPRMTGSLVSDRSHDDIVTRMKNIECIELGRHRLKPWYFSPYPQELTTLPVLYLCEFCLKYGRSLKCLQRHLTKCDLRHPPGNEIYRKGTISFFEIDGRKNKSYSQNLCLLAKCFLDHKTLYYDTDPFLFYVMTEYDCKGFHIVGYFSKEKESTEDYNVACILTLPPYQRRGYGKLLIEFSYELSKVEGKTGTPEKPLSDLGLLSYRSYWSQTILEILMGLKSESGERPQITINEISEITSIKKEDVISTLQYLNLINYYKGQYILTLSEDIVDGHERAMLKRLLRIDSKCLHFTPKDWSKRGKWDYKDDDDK

T1 sequence (Q92794 with tags, fused parts or gaps): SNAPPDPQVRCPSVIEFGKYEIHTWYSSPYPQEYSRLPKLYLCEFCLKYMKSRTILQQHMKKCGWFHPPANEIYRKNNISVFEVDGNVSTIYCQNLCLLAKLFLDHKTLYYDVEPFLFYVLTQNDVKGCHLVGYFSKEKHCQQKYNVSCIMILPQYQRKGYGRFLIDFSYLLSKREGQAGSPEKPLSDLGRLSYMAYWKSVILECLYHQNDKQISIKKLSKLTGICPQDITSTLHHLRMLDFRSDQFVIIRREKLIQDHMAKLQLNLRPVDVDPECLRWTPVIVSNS

| Compound | IC50 (KAT6A) [µM] | IC50 (KAT5) [µM] |
| --- | --- | --- |
| Cc1cc(-c2ccccc2)cc(C(=O)NNS(=O)(=O)c2ccc(Cl)cc2)c1F [Compound I-217] | ≤ 10 | ≤ 10 |
| Cc1cc(-c2ccccc2)cc(C(=O)NNS(=O)(=O)C2CCN(Cc3ccccc3Cl)C2)c1F (stereo not drawn) [Compound I-29] | ≤ 10 | ≤ 10 |
| COc1ccc(C(=O)NNS(=O)(=O)c2ccccc2)cc1 [Compound I-192] | > 100 | > 100 |
| CCN1CCC(S(=O)(=O)NNC(=O)c2cc(-c3ccccc3)cc(C)c2F)CC1 [Compound I-91] | 50 to 100 | 10 to 50 |
| CCc1cccc(-c2cc(C)c(F)c(C(=O)NNS(=O)(=O)CC3CCCCC3)c2)c1 [Compound I-373] | 50 to 100 | 50 to 100 |
| Cc1cc(-c2cccc(F)c2)cc(C(=O)NNS(=O)(=O)CC2CNCCO2)c1F (stereo not drawn) [Compound I-428] | ≤ 10 | 10 to 50 |
| Cc1cc(Cl)cc(C(=O)NNS(=O)(=O)CC2CCCCC2)c1F [Compound I-276] | 10 to 50 | ≤ 10 |
| CC(=O)N1CCOC(CS(=O)(=O)NNC(=O)c2cc(-c3ccccc3)cc(C)c2F)C1 (stereo not drawn) [Compound I-427] | ≤ 10 | ≤ 10 |
| Cc1cc(-c2ccccc2)cc(C(=O)NNS(=O)(=O)c2ccc(=O)[nH]c2)c1F [Compound I-162] | ≤ 10 | > 100 |
| Cc1cc(-c2ccccc2)cc(C(=O)NNS(=O)(=O)C(C)C)c1F [Compound I-3] | 50 to 100 | 10 to 50 |
| Cn1nc(NNS(=O)(=O)c2ccccc2)c2cccc(-c3ccccc3)c21 [Compound I-49] | > 100 | > 100 |
| Cc1c(F)c(C(=O)NNS(=O)(=O)C2CCCCC2)nn1C [Compound I-475] | > 100 | > 100 |
| O=C(NNS(=O)(=O)c1ccc2ccccc2c1)c1cccc(-c2ccccc2)c1 [Compound I-246] | ≤ 10 | 50 to 100 |
| CCc1cc(C)c(F)c(C(=O)NNS(=O)(=O)C2CCCCC2)c1 [Compound I-300] | 50 to 100 | 10 to 50 |
| Cc1c(F)cc(-c2ccccc2)cc1C(=O)NNS(=O)(=O)c1ccccc1 [Compound I-205] | 50 to 100 | > 100 |
| COc1cc(C)c(F)c(C(=O)NNS(=O)(=O)C2CCCCC2)c1 [Compound I-391] | > 100 | ≤ 10 |
| Cn1cnc2c(C(=O)NNS(=O)(=O)C3CCCCC3)cc(-c3ccccc3)cc21 [Compound I-283] | > 100 | > 100 |
| Cc1cc(-c2ccccc2)cc(C(=O)NS(=O)(=O)c2ccccc2)c1F [Compound I-168] | 50 to 100 | 50 to 100 |
| Cc1cc(-c2ccccc2)cc(C(=O)Nc2n[nH]c3ncccc23)c1F [Compound I-282] | 10 to 50 | 50 to 100 |
| COCC(=O)N1CCCC(CS(=O)(=O)NNC(=O)c2cc(-c3cccc(F)c3)cc(Cl)c2F)C1 (stereo not drawn) [Compound I-418] | ≤ 10 | ≤ 10 |
| Nc1ccc(-c2cc(Cl)c(F)c(C(=O)NNS(=O)(=O)C3CCCCC3)c2)cc1 [Compound I-463] | > 100 | ≤ 10 |
| O=C(NNS(=O)(=O)c1ccc(Cl)cc1)c1ccccc1F [Compound I-143] | 10 to 50 | > 100 |

| Compound | IC50 (KAT6A) [µM] | IC50 (KAT5) [µM] |
| --- | --- | --- |
| O=C(NNS(=O)(=O)c1ccccc1)c1cc(-c2ccccc2)cc(F)c1F [Compound I-250] | ≤ 10 | ≤ 10 |
| Cc1cc(-c2ccccc2)cc(C(=O)NNS(=O)(=O)C2CCN(Cc3ccccc3)C2)c1F (stereo not drawn) [Compound I-33] | 10 to 50 | 10 to 50 |
| O=S(=O)(NNc1n[nH]c2c(-c3ccccc3)cccc12)c1ccccc1 [Compound I-50] | > 100 | 50 to 100 |
| CNCCC(=O)N1CCC(CS(=O)(=O)NNC(=O)c2cc(-c3cccc(F)c3)cc(C)c2F)CC1 [Compound I-389] | 10 to 50 | 10 to 50 |
| Cc1cc(-c2ccccc2)cc(C(=O)NNS(=O)(=O)C2CN(C(=O)OC(C)(C)C)C2)c1F [Compound I-119, tert-Butyl 3-((2-(4-fluoro-5-methyl-[1,1′-biphenyl]-3-carbonyl)hydrazinyl)sulfonyl)azetidine-1-carboxylate] | 10 to 50 | 10 to 50 |
| O=C(NNS(=O)(=O)CC1CCOCC1)c1cc(CO)cc(Cl)c1F [Compound I-466] | 10 to 50 | 10 to 50 |
| Cc1cc(-c2cccc(F)c2F)cc(C(=O)NNS(=O)(=O)c2ccccc2)c1F [Compound I-362] | ≤ 10 | ≤ 10 |
| Cc1cc(-c2ccccc2)cc(C(=O)NNS(=O)(=O)CC2CCCN(CCO)C2)c1F (stereo not drawn) [Compound I-339] | 10 to 50 | 10 to 50 |
| Cc1cc(-c2ccccc2)cc(C(=O)NNS(=O)(=O)C2CCN(C(=O)C(C)C)C2)c1F (stereo not drawn) [Compound I-105] | 10 to 50 | 10 to 50 |
| CCNC(=O)c1cc(Cl)c(F)c(C(=O)NNS(=O)(=O)C2CCOCC2)c1 [Compound I-492] | > 100 | > 100 |
| COc1ccc(S(=O)(=O)NNC(=O)c2c(F)ccc(-c3ccccc3)c2C)cc1 [Compound I-186] | 10 to 50 | 50 to 100 |
| COCCC(=O)N1CCC(S(=O)(=O)NNC(=O)c2cc(-c3ccccc3)cc(C)c2F)CC1 [Compound I-109] | 10 to 50 | 10 to 50 |
| Cc1cc(-c2ccccc2)c(F)c(C(=O)NNS(=O)(=O)c2ccccc2)c1F [Compound I-223] | ≤ 10 | ≤ 10 |
| CNC(=O)Cn1nc(C)c(F)c1C(=O)NNS(=O)(=O)C1CCCCC1 [Compound I-503] | > 100 | > 100 |
| Cn1cc2c(C(=O)NNS(=O)(=O)c3ccccc3)cc(-c3ccccc3)cc2n1 [Compound I-345] | > 100 | > 100 |
| O=C(NNS(=O)(=O)c1ccccc1)c1cc2ccccc2cc1F [Compound I-262] | ≤ 10 | 50 to 100 |
| Cc1cc(-c2cccc(Cl)c2F)cc(C(=O)NNS(=O)(=O)C2CCCCC2)c1F [Compound I-376] | 10 to 50 | 10 to 50 |
| O=C(NNS(=O)(=O)c1cccc(Cl)c1)c1c(F)ccc(Cl)c1F [Compound I-198] | ≤ 10 | 50 to 100 |
| CN1CCC(c2ccc(F)c(C(=O)NNS(=O)(=O)C3CCCCC3)c2)C1 (stereo not drawn) [Compound I-407] | > 100 | > 100 |
| CC(=O)N1CCCC(CS(=O)(=O)NNC(=O)c2cc(-c3cccc(F)c3)cc(C)c2F)C1 (stereo not drawn) [Compound I-330] | ≤ 10 | ≤ 10 |
| COc1cccc(S(=O)(=O)NNC(=O)c2ccccc2F)c1 [Compound I-177] | 10 to 50 | > 100 |
| Cc1cc(-c2ccccc2)cc(C(=O)NNS(=O)(=O)C2CC2)c1F [Compound I-4] | 50 to 100 | 50 to 100 |

| Compound | IC50 (KAT6A) [µM] | IC50 (KAT5) [µM] |
| --- | --- | --- |
| CC(=O)N1CCC(CS(=O)(=O)NNC(=O)c2cc(-c3cccc(F)c3)cc(C)c2F)CC1 [Compound I-388] | ≤ 10 | ≤ 10 |
| Cc1nc(-c2ccccc2)cc(C(=O)NNS(=O)(=O)C2CCCCC2)c1F [Compound I-288] | 10 to 50 | 10 to 50 |
| CCC(=O)N1CCCC(CS(=O)(=O)NNC(=O)c2cc(-c3cccc(F)c3)cc(C)c2F)C1 (stereo not drawn) [Compound I-372] | ≤ 10 | ≤ 10 |
| CNC(=O)c1cccc(S(=O)(=O)NNC(=O)c2cc(-c3ccccc3)cc(C)c2F)c1 [Compound I-219] | ≤ 10 | ≤ 10 |
| O=C(NNS(=O)(=O)C1CCCCC1)c1c(F)c(-c2ccccc2)cc2nc[nH]c12 [Compound I-467] | > 100 | > 100 |
| Cc1ccc(-c2csc(NS(=O)(=O)c3cccc(C(=O)O)c3)n2)cc1C [Compound I-520] | > 100 | > 100 |
| Cc1nn(CC(=O)NCCN(C)C)c(C(=O)NNS(=O)(=O)C2CCCCC2)c1F [Compound I-502] | > 100 | > 100 |
| CCc1cccc(S(=O)(=O)NNC(=O)c2cc(-c3ccccc3)cc(C)c2F)c1 [Compound I-221] | ≤ 10 | 10 to 50 |
| O=S(=O)(NNc1n[nH]c2c(F)cccc12)c1ccccc1 [Compound I-48] | > 100 | > 100 |
| O=C(NNS(=O)(=O)c1cccc(Cl)c1)c1c(F)ccc(-c2ccccc2)c1F [Compound I-161] | ≤ 10 | 10 to 50 |
| Cn1cnc2c(C(=O)NNS(=O)(=O)C3CCCCC3)c(F)c(-c3ccccc3)cc21 [Compound I-468] | > 100 | > 100 |
| Cc1cccc(-c2ccc(F)c(C(=O)NNS(=O)(=O)c3ccccc3)c2)c1 [Compound I-125] | ≤ 10 | 10 to 50 |
| Cc1cc(-c2ccccc2)cc(C(=O)NNS(=O)(=O)Cc2ccccc2Cl)c1F [Compound I-8] | ≤ 10 | ≤ 10 |
| CCC(=O)N1CCC(S(=O)(=O)NNC(=O)c2cc(-c3ccccc3)cc(C)c2F)CC1 [Compound I-107] | 10 to 50 | 10 to 50 |
| O=C(NCCO)c1cc(Cl)c(F)c(C(=O)NNS(=O)(=O)C2CCOCC2)c1 [Compound I-480] | > 100 | > 100 |
| Cc1cc(-c2cccc(C(=O)N(C)C)c2)cc(C(=O)NNS(=O)(=O)C2CCCCC2)c1F [Compound I-378] | > 100 | 50 to 100 |
| Cc1cc(-c2ccccc2)cc(C(=O)NNS(=O)(=O)C2CC3CCC(C2)N3C(=O)OC(C)(C)C)c1F (stereo not drawn) [Compound I-137] | 10 to 50 | 10 to 50 |
| COCC(=O)N1CCCC(CS(=O)(=O)NNC(=O)c2cc(-c3cccc(F)c3)cc(C)c2F)C1 (stereo not drawn) [Compound I-289] | ≤ 10 | ≤ 10 |
| Cc1cc(-c2ccccc2)cc(C(=O)NNS(C)(=O)=O)c1F [Compound I-1] | 10 to 50 | 50 to 100 |
| Cc1cc(-c2cccc(F)c2)cc(C(=O)NNS(=O)(=O)CC2CCCN(C(=O)CCN(C)C(=O)OC(C)(C)C)C2)c1F (stereo not drawn) [Compound I-331] | ≤ 10 | ≤ 10 |
| CC(=O)N1CC(CS(=O)(=O)NNC(=O)c2cc(-c3ccccc3)cc(C)c2F)C1 [Compound I-303] | ≤ 10 | 10 to 50 |
| COc1ccccc1CS(=O)(=O)NNC(=O)c1cc(-c2ccccc2)cc(C)c1F [Compound I-79] | ≤ 10 | ≤ 10 |
